Assays:
SK-MEL-2 [1] = assay: Growth inhibition of human SK-MEL-2 cells assessed as cell growth at 10 uM incubated for 48 hrs by sulforhodamine B assay relative to control; assay type: functional; details: SK-MEL-2, 48 h, read-out: Activity
SW-620 = assay: Growth inhibition of human SW620 cells incubated for 48 hrs by sulforhodamine B assay; assay type: functional, cell-based; details: SW-620, 48 h
SNB-19 = assay: Growth inhibition of human SNB19 cells incubated for 48 hrs by sulforhodamine B assay; assay type: functional, cell-based; details: SNB-19, 48 h
OVCAR-4 [2] = assay: Growth inhibition of human OVCAR4 cells incubated for 48 hrs by sulforhodamine B assay; assay type: functional, cell-based; details: OVCAR-4, 48 h
CAKI-1 = assay: Growth inhibition of human Caki1 cells incubated for 48 hrs by sulforhodamine B assay; assay type: functional, cell-based; details: CAKI-1, 48 h
MDA-MB-231 = assay: Growth inhibition of human MDA-MB-231 cells incubated for 48 hrs by sulforhodamine B assay; assay type: functional, cell-based; details: MDA-MB-231, 48 h
MDA-MB-468 = assay: Growth inhibition of human MDA-MB-468 cells incubated for 48 hrs by sulforhodamine B assay; assay type: functional, cell-based; details: MDA-MB-468, 48 h
CCRF-CEM = assay: Growth inhibition of human CCRF-CEM cells assessed as cell growth at 0.01 uM incubated for 48 hrs by sulforhodamine B assay relative to control; assay type: functional; details: read-out: Activity
NCI-H322M [3] = assay: Growth inhibition of human NCI-H322M cells assessed as cell growth at 0.01 uM incubated for 48 hrs by sulforhodamine B assay relative to control; assay type: functional; details: read-out: Activity
NCI-H522 = assay: Growth inhibition of human NCI-H522 cells assessed as cell growth at 0.01 uM incubated for 48 hrs by sulforhodamine B assay relative to control; assay type: functional; details: NCI-H522, 48 h, read-out: Activity
COLO 205 [4] = assay: Growth inhibition of human COLO205 cells assessed as cell growth at 0.01 uM incubated for 48 hrs by sulforhodamine B assay relative to control; assay type: functional; details: COLO 205, 48 h, read-out: Activity
HCT-15 = assay: Growth inhibition of human HCT15 cells assessed as cell growth at 0.01 uM incubated for 48 hrs by sulforhodamine B assay relative to control; assay type: functional; details: HCT-15, 48 h, read-out: Activity
PC-3 [5] = assay: Growth inhibition of human PC3 cells assessed as cell growth at 0.01 uM incubated for 48 hrs by sulforhodamine B assay relative to control; assay type: functional; details: PC-3, 48 h, read-out: Activity
SR = assay: Growth inhibition of human SR cells assessed as cell growth at 0.1 uM incubated for 48 hrs by sulforhodamine B assay relative to control; assay type: functional; details: read-out: Activity
A549 = assay: Growth inhibition of human A549/ATCC cells assessed as cell growth at 0.1 uM incubated for 48 hrs by sulforhodamine B assay relative to control; assay type: functional; details: A549, 48 h, read-out: Activity
NCI-H226 = assay: Growth inhibition of human NCI-H226 cells assessed as cell growth at 0.1 uM incubated for 48 hrs by sulforhodamine B assay relative to control; assay type: functional; details: NCI-H226, 48 h, read-out: Activity
NCI-H23 = assay: Growth inhibition of human NCI-H23 cells assessed as cell growth at 0.1 uM incubated for 48 hrs by sulforhodamine B assay relative to control; assay type: functional; details: NCI-H23, 48 h, read-out: Activity
COLO 205 [6] = assay: Growth inhibition of human COLO205 cells assessed as cell growth at 0.1 uM incubated for 48 hrs by sulforhodamine B assay relative to control; assay type: functional; details: COLO 205, 48 h, read-out: Activity
SF-295 = assay: Growth inhibition of human SF295 cells assessed as cell growth at 0.1 uM incubated for 48 hrs by sulforhodamine B assay relative to control; assay type: functional; details: SF-295, 48 h, read-out: Activity
NCI/ADR-RES = assay: Growth inhibition of human NCI/ADR-RES cells assessed as cell growth at 0.1 uM incubated for 48 hrs by sulforhodamine B assay relative to control; assay type: functional; details: read-out: Activity
PC-3 [7] = assay: Growth inhibition of human PC3 cells assessed as cell growth at 0.1 uM incubated for 48 hrs by sulforhodamine B assay relative to control; assay type: functional; details: PC-3, 48 h, read-out: Activity
Malme-3M = assay: Growth inhibition of human MALME-3M cells assessed as cell growth at 1 uM incubated for 48 hrs by sulforhodamine B assay relative to control; assay type: functional; details: read-out: Activity
SK-MEL-2 [8] = assay: Growth inhibition of human SK-MEL-2 cells assessed as cell growth at 1 uM incubated for 48 hrs by sulforhodamine B assay relative to control; assay type: functional; details: SK-MEL-2, 48 h, read-out: Activity
T47D = assay: Growth inhibition of human T47D cells assessed as cell growth at 1 uM incubated for 48 hrs by sulforhodamine B assay relative to control; assay type: functional; details: read-out: Activity
NCI-H322M [9] = assay: Growth inhibition of human NCI-H322M cells assessed as cell growth at 100 uM incubated for 48 hrs by sulforhodamine B assay relative to control; assay type: functional; details: read-out: Activity
NCI-H460 = assay: Growth inhibition of human NCI-H460 cells assessed as cell growth at 100 uM incubated for 48 hrs by sulforhodamine B assay relative to control; assay type: functional; details: NCI-H460, 48 h, read-out: Activity
SF-539 = assay: Growth inhibition of human SF539 cells assessed as cell growth at 100 uM incubated for 48 hrs by sulforhodamine B assay relative to control; assay type: functional; details: SF-539, 48 h, read-out: Activity
MDA-MB-435 = assay: Growth inhibition of human MDA-MB-435 cells assessed as cell growth at 100 uM incubated for 48 hrs by sulforhodamine B assay relative to control; assay type: functional; details: MDA-MB-435, 48 h, read-out: Activity
OVCAR-4 [10] = assay: Growth inhibition of human OVCAR4 cells assessed as cell growth at 100 uM incubated for 48 hrs by sulforhodamine B assay relative to control; assay type: functional; details: OVCAR-4, 48 h, read-out: Activity
UO-31 = assay: Growth inhibition of human UO31 cells assessed as cell growth at 100 uM incubated for 48 hrs by sulforhodamine B assay relative to control; assay type: functional; details: UO-31, 48 h, read-out: Activity
[11] = read-out: LC50 (the source's name)
[12] = read-out: pLC50 (the source's name) (converted)

What does the source list for `COc1cc(Cl)cc(-c2nn(-c3cccc(NC(=O)Nc4cc(C(F)(F)F)cc(C(F)(F)F)c4)c3)cc2-c2ccncc2)c1`?
growth at 10 µM (SK-MEL-2 [1]): -38.1%; IC50 (SW-620): 390 nM; GI50 (SW-620; read-out: GI50): 300 nM; LC50 (SW-620; read-out: LC50): 15 nM; TGI (SW-620; read-out: TGI): 2000 nM; GI50 (SW-620; read-out: pGI50 (converted)): 389 nM; LC50 (SW-620; read-out: pLC50 (converted)): 15100 nM; TGI (SW-620; read-out: pTGI (converted)): 2000 nM; IC50 (SNB-19): 420 nM; GI50 (SNB-19; read-out: GI50): 420 nM; CC50 (SNB-19; [11]): > 100000 nM; TGI (SNB-19; read-out: TGI): 11300 nM; GI50 (SNB-19; read-out: pGI50 (converted)): 417 nM; CC50 (SNB-19; [12]): > 100000 nM; TGI (SNB-19; read-out: pTGI (converted)): 11200 nM; IC50 (OVCAR-4 [2]): 500 nM; GI50 (OVCAR-4 [2]; read-out: GI50): 501 nM; CC50 (OVCAR-4 [2]; [11]): > 100000 nM; TGI (OVCAR-4 [2]; read-out: TGI): 21400 nM; GI50 (OVCAR-4 [2]; read-out: pGI50 (converted)): 501 nM; CC50 (OVCAR-4 [2]; [12]): > 100000 nM; TGI (OVCAR-4 [2]; read-out: pTGI (converted)): 26900 nM; IC50 (CAKI-1): 420 nM; GI50 (CAKI-1; read-out: GI50): 420 nM; TGI (CAKI-1; read-out: TGI): 4750 nM; GI50 (CAKI-1; read-out: pGI50 (converted)): 417 nM; CC50 (CAKI-1; [12]): 61700 nM; TGI (CAKI-1; read-out: pTGI (converted)): 4790 nM; IC50 (MDA-MB-231): 460 nM; GI50 (MDA-MB-231; read-out: GI50): 456 nM; TGI (MDA-MB-231; read-out: TGI): 1860 nM; GI50 (MDA-MB-231; read-out: pGI50 (converted)): 457 nM; CC50 (MDA-MB-231; [12]): 5370 nM; TGI (MDA-MB-231; read-out: pTGI (converted)): 1860 nM; IC50 (MDA-MB-468): 340 nM; GI50 (MDA-MB-468; read-out: GI50): 336 nM; CC50 (MDA-MB-468; [11]): > 100000 nM; TGI (MDA-MB-468; read-out: TGI): 2520 nM; GI50 (MDA-MB-468; read-out: pGI50 (converted)): 339 nM; CC50 (MDA-MB-468; [12]): > 100000 nM; TGI (MDA-MB-468; read-out: pTGI (converted)): 2510 nM; growth at 0.01 µM (CCRF-CEM): 87%; growth at 0.01 µM (NCI-H322M [3]): 100%; growth at 0.01 µM (NCI-H522): 93%; growth at 0.01 µM (COLO 205 [4]): 98%; growth at 0.01 µM (HCT-15): 93%; growth at 0.01 µM (PC-3 [5]): 101%; growth at 0.1 µM (SR): 92%; growth at 0.1 µM (A549): 95%; growth at 0.1 µM (NCI-H226): 102%; growth at 0.1 µM (NCI-H23): 95%; growth at 0.1 µM (COLO 205 [6]): 98%; growth at 0.1 µM (SF-295): 91%; growth at 0.1 µM (NCI/ADR-RES): 95%; growth at 0.1 µM (PC-3 [7]): 91%; growth at 1 µM (Malme-3M): 36%; growth at 1 µM (SK-MEL-2 [8]): 40%; growth at 1 µM (T47D): 15%; growth at 100 µM (NCI-H322M [9]): -78%; growth at 100 µM (NCI-H460): -84%; growth at 100 µM (SF-539): -73%; growth at 100 µM (MDA-MB-435): -81%; growth at 100 µM (OVCAR-4 [10]): -22%; growth at 100 µM (UO-31): -82%
